Results reported in patent US7008636B2, “2,3,5-substituted biphenyls useful in the treatment of insulin resistance and hyperglycemia” (Wyeth, priority 1998, dated 2006).
Structures can show the parent of a compound that is named as a salt.

target: T1, recombinant, human protein tyrosine phosphatase (PTP) 1B (hPTP1B) (Homo sapiens, UniProt P18031); test: Inhibition of tri-phosphorylated insulin receptor dodecaphosphopeptide dephosphorylation by hPTP1B; assay type: biochemical; details: 50 μM IR triphosphopeptide substrate, 5 min preincubation and 5 min reaction at 37° C., malachite green-ammonium molybdate phosphate detection
T1 construct: made in house
T1 sequence (P18031 1-435): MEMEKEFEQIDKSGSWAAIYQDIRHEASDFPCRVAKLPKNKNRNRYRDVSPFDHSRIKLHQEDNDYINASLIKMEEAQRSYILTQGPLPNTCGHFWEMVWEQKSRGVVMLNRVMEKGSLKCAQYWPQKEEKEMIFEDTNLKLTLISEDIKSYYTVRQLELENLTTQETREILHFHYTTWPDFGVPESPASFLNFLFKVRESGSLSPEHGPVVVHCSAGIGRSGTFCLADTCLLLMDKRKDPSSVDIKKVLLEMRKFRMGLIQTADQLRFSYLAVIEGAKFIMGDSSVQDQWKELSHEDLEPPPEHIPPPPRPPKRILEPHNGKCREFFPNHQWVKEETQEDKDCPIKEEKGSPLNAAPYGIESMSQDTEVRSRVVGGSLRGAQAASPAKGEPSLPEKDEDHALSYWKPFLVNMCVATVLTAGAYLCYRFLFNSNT

Row | IC50 [nM] | SMILES
1 | 63 | CCCCCCCCCCCCNC(=O)c1cc(-c2cccc(Cl)c2)c(OCC(=O)O)c(-c2cccc(Cl)c2)c1 [Example 1, (3,3″-Dichloro-5′-dodecylcarbamoyl-[1,1′;3′,1″]terphenyl-2′-yloxy)-acetic acid]
2 | 111 | O=C(O)COc1c(-c2cccc(Cl)c2)cc(C(=O)NCCCCCCCCc2ccccc2)cc1-c1cccc(Cl)c1 [Example 3, [3,3″-Dichloro-5′-(8-phenyl-octylcarbamoyl)-[1,1′;3′,1″]terphenyl-2′-yloxy]-acetic acid]
3 | 15 | CCCCCCCCCCCCNC(=O)c1cc(-c2cccc(Cl)c2)c(OCCOCC(=O)O)c(-c2cccc(Cl)c2)c1 [Example 12]
4 | 44 | CCCCCCCCCCCCNC(=O)c1cc(-c2ccc(F)c(Cl)c2)c(OCC(=O)O)c(-c2ccc(F)c(Cl)c2)c1 [Example 24, (3,3″-Dichloro-5′-dodecylcarbamoyl-4,4″-difluoro[1,1′;3′,1″]terphenyl(-2′-yloxy)-acetic acid sodium salt]
5 | 123 | O=C(O)COc1c(-c2ccc(F)c(Cl)c2)cc(C(=O)NCCCCCCCCc2ccccc2)cc1-c1ccc(F)c(Cl)c1 [Example 25, [3,3″-Dichloro-4-4″difluoro-5′-(8-phenyl-octylcarbamoyl)[-1,1′;3′,1″]terphenyl-2′-yloxy]-acetic acid]
6 | 450 | O=C(O)COc1c(-c2cccc(C(F)(F)F)c2)cc(C(=O)NCCCCCCCCc2ccccc2)cc1-c1ccccc1F [Example 108, [2″-Fluoro-5′-(8-phenyl-octylcarbamoyl)-3-trifluoromethyl-[1,1′;3′,1″]terphenyl-2′-yloxy)-acetic acid]
7 | 700 | O=C(O)COc1c(-c2ccccc2F)cc(C(=O)NCCCCCCCCc2ccccc2)cc1-c1ccccc1F [Example 111, [2,2″-Difluoro-5′-(8-phenyl-octylcarbamoyl)-[1,1′;3′,1″]terphenyl-2′-yloxy)-acetic acid]
8 | 55 | CCCCCCCCCCCCNC(=O)c1cc(-c2cccc(Cl)c2)c(OCC(=O)O)c(-c2ccccc2F)c1 [Example 114, (3″-Chloro-5′-dodecylcarbamoyl-2-fluoro-[1,1′;3′,1″]terphenyl-2′-yloxy)-acetic acid]
9 | 287 | O=C(O)COc1c(-c2cccc(Cl)c2)cc(C(=O)NCCCCCCCCc2ccccc2)cc1-c1ccccc1F [Example 115, [3″-Chloro-2-fluoro-5′-(8-phenyl-octylcarbamoyl)-[1,1′;3′,1″]terphenyl-2′-yloxy]-acetic acid]
10 | 627 | O=C(O)COc1c(-c2cccc(Cl)c2)cc(C(=O)NCCCCCCCC[S+]([O-])c2ccc(Cl)cc2)cc1-c1cccc(Cl)c1 (stereo not drawn) [Example 119, {3,3″-Dichloro-5′-[8-(4-chloro-benzenesulfinyl)-octylcarbamoyl]-[1,1′;3′,1″]terphenyl-2′-yloxy}-acetic acid]
11 | 53 | O=C(O)COc1c(-c2cccc(Cl)c2)cc(C(=O)NCCCCCCCCOc2ccc(F)cc2F)cc1-c1cccc(Cl)c1 [Example 120, {3,3″-Dichloro-5′-[8-(2,4-difluoro-phenoxy)-octylcarbamoyl]-[1,1′;3′,1″]terphenyl-2′-yloxy}-acetic acid]
12 | 15 | O=C(O)COc1c(-c2cccc(Cl)c2)cc(C(=O)NCCCCCCCCCCCCOc2ccc(F)cc2F)cc1-c1cccc(Cl)c1 [Example 121, {3,3″-Dichloro-5′-[12-(2,4-difluoro-phenoxy)-dodecylcarbamoyl]-[1,1′;3′,1″]terphenyl-2′-yloxy}-acetic acid]
13 | 92 | O=C(O)COc1c(-c2cccc(Cl)c2)cc(C(=O)NCCCCCCCCOCc2ccc(C(F)(F)F)cc2)cc1-c1cccc(Cl)c1 [Example 122, {3,3″-Dichloro-5′-[8-(4-trifluoromethyl-benzyloxy)-octylcarbamoyl]-[1,1′;3′,1″]terphenyl-2′-yloxy}-acetic acid]
14 | 455 | O=C(O)COc1ccc(C(=O)NCCCCCCCCc2ccccc2)cc1-c1ccc(F)c(Cl)c1 [Example 136, [3′-Chloro-4′-fluoro-5-(8-phenyl-octylcarbamoyl)-biphenyl-2-yloxy]acetic acid]
15 | 258 | Cc1cccc(-c2cc(C(=O)NCCCCCCCc3ccccc3)cc(-c3cccc(C)c3)c2OCCCC(=O)O)c1 [Example 146, 4-[3,3″-Dimethyl-5′-(7-phenyl-heptylcarbamoyl)-[1,1′:3′,1″]terphenyl-2′-yloxy]-butyric acid]
16 | 98 | CCCCCCCCCCCCNC(=O)c1cc(-c2cccc(Cl)c2)c(OCC(=O)O)c(-c2cccc(C(F)(F)F)c2)c1 [Example 153, (3″-Chloro-5′-dodecylcarbamoyl-3-trifluoromethyl-[1,1′;3′,1″]terphenyl-2′-yloxy)acetic acid]
17 | 129 | CCCCCCCCCCCCNC(=O)c1cc(-c2ccc(OC)cc2)c(OCC(=O)O)c(-c2cccc(C(F)(F)F)c2)c1 [Example 154, (5′-Dodecylcarbamoyl-4″-methoxy-3-trifluoromethyl-[1,1′;3′1″]terphenyl-2′-yloxy)acetic acid]

The next lines start with the compound.

Row | SMILES | IC50 [nM]
18 | CCCCCCCCCCCCNC(=O)c1cc(Br)c(OCC(=O)O)c(-c2cccc(Cl)c2)c1 [Example 2, (3-Bromo-3′-chloro-5-dodecylcarbamoyl-biphenyl-2-yloxy)acetic acid] | 183
19 | CCCCCCCCCCCCNC(=O)c1cc(Br)c(OCC(=O)O)c(-c2ccc(OC)cc2)c1 [Example 31, (3-Bromo-5-dodecylcarbamoyl-4′-methoxy-biphenyl-2-yloxy)-acetic acid] | 203
20 | CCCCCCCCOc1cc(-c2cccc(OC)c2)c(OCC(=O)O)c(-c2cccc(OC)c2)c1 [Example 50, (3,3″-Dimethoxy-5′-octyloxy-[1,1′;3′,1″]terphenyl-2′-yloxy)acetic acid] | 254
21 | CCCCCCCCCCCCNC(=O)c1cc(-c2cccc(C(F)(F)F)c2)c(OCC(=O)O)c(-c2ccccc2F)c1 [Example 109, (5′-Dodecylcarbamoyl-2″-fluoro-3-trifluoromethyl-[1,1′;3′,1″]terphenyl-2′-yloxy)-acetic acid] | 187
22 | CCCCCCCCCCCCNC(=O)c1cc(-c2ccccc2F)c(OCC(=O)O)c(-c2ccccc2F)c1 [Example 110, (5′-Dodecylcarbamoyl-2,2″-difluoro-[1,1′;3′,1″]terphenyl-2′-yloxy)-acetic acid] | 300
23 | CN(CCCCCCCCc1ccccc1)C(=O)c1cc(-c2ccccc2F)c(OCC(=O)O)c(-c2ccccc2F)c1 [Example 118, {2,2″-Difluoro-5′-[methyl-(8-phenyl-octyl)-carbamoyl]-[1,1′;3′,1″]terphenyl-2′-yloxy}-acetic acid] | 423
24 | O=C(O)COc1c(-c2cccc(Cl)c2)cc(C(=O)N(C2CCCCC2)C2CCCCC2)cc1-c1cccc(Cl)c1 [Example 124, (3,3″-Dichloro-5′-dicyclohexylcarbamoyl-[1,1′;3′,1″]terphenyl-2′-yloxy)-acetic acid] | 595
25 | O=C(NCCCCCCCc1ccccc1)c1cc(-c2cccc(C(F)(F)F)c2)c(OCP(=O)(O)O)c(-c2cccc(C(F)(F)F)c2)c1 [Example 128, [5′-(7-Phenyl-heptylcarbamoyl)-3,3″-bis-trifluoromethyl-[1,1′:3′,1″]terphenyl-2′-yloxymethyl]-phosphonic acid] | 264
26 | O=C(NCCCCCCCc1ccccc1)c1cc(-c2cccc(C(F)(F)F)c2)c(OCc2ccc(S(=O)(=O)O)cc2)c(-c2cccc(C(F)(F)F)c2)c1 [Example 130, 4-[5′-(7-Phenyl-heptylcarbamoyl)-3,3″-bis-trifluoromethyl-[1,1′3′,1″]terphenyl-2′-yloxymethyl]-benzenesulfonic acid] | 56
27 | COc1ccc(-c2cc(-c3ccc(C(=O)NCCCCCCCc4ccccc4)cc3)cc(-c3ccc(OC)cc3)c2OCc2ccc(C(=O)O)cc2)cc1 [Example 133] | 102
28 | O=C(O)c1ccc(COc2c(-c3cccc(C(F)(F)F)c3)cc(C(=O)NCCCCCCCc3ccccc3)cc2-c2cccc(C(F)(F)F)c2)cc1 [Example 134, 4-[5′-(7-Phenyl-heptylcarbamoyl)-3,3″-bis-trifluoromethyl-[1,1′:3′,1″]terphenyl-2′-yloxymethyl]-benzoic acid] | 57
29 | CCCCCCCCCCCCNC(=O)c1cc(Br)c(OCC(=O)O)c(-c2ccc(F)c(Cl)c2)c1 [Example 135, (3-Bromo-3′-chloro-5-dodecylcarbamoyl-4′-fluoro-biphenyl-2-yloxy)acetic acid] | 130
30 | Cc1cc(C)cc(-c2cc(C(=O)NCCCCCCCCc3ccccc3)cc(-c3cc(C)cc(C)c3)c2OCC(=O)O)c1 [Example 141, [3,5,3″,5″-Tetramethyl-5′-(8-phenyl-octylcarbamoyl)-[1,1′:3′,1″]terphenyl-2′-yloxy]acetic acid] | 71
31 | COCOc1c(-c2cccc(C=O)c2)cc(C(=O)NCCCCCCCc2ccccc2)cc1-c1cccc(C=O)c1 [Example 149, 3,3″-Diformyl-2′-methoxymethoxy-[1,1′:3′,1″]terphenyl-5′-carboxylic acid (7-phenyl-heptyl)-amide] | 405
32 | O=C(NCCCCCCCCc1ccccc1)c1cc(Br)c(O)c(-c2cccc(C(=O)OCCCCCl)c2)c1 [Example 152, 3′-Bromo-2′-hydroxy-5′-(8-phenyl-octylcarbamoyl)-biphenyl-3-carboxylic acid 4-chloro-butyl ester] | 396
33 | CCCCCCCCCCCCNC(=O)c1cc(-c2ccc(OC)cc2)c(OCC(=O)O)c(-c2ccccc2F)c1 [Example 155, (5′-Dodecylcarbamoyl-2″-fluoro-4-methoxy-[1,1′;3′,1″]terphenyl-2′-′yloxy)acetic acid] | 139
